Reference: article PMC3215401 (Biosensors & bioelectronics, 2011)

What was measured:
Format in all cases: cell-based, human
[1] = molecular target: PPARγ LBD, sensor 100PPARγ383 (UniProt P37231+P9WHJ3, V318L)
[2] = molecular target: PPARγ LBD, sensor 110PPARγ383 (UniProt P37231+P9WHJ3, V318L)
[3] = molecular target: PPARγ LBD, sensor 110PPARγ393 (UniProt P37231+P9WHJ3, V318L)
[4] = molecular target: PPARγ LBD, sensor 94_1GS_PPARγ_1GS_403 (UniProt P37231+P9WHJ3, V318L)
[5] = molecular target: PPARγ LBD, sensor 110PPARγ_3GS_403 (UniProt P37231+P9WHJ3, V318L)
[6] = molecular target: PPARγ LBD, sensor 110PPARγ_3GS_383 (UniProt P37231+P9WHJ3, V318L)
[7] = molecular target: PPARγ LBD, sensor 94PPARγ403 (UniProt P37231+P9WHJ3, V318L)

| SMILES | effect on cell growth [1] | EC50 [2] | effect on cell growth [2] | effect on cell growth [3] | effect on cell growth [4] | EC50 [5] | IC50 ([2]; read-out: IC50 for antagonism) | EC50 [4] | effect on cell growth [6] | effect on cell growth [7] |
| --- | --- | --- | --- | --- | --- | --- | --- | --- | --- | --- |
| CCCCC/C=C/C=C1/C(=O)C=C[C@@H]1C/C=C\CCCC(=O)O [15D-PGJ2, 15-deoxy-Δ^12,14-Prostaglandin J2] | significant response | could not be calculated | didn't induce a significant cell growth signal | almost no effect | strongest observed response | could not be calculated | – | – | – | – |
| C[C@]12CC[C@@H]3c4ccc(O)cc4CC[C@H]3[C@@H]1CC[C@@H]2O [E2, 17β-estradiol] | – | – | no significant effect | – | – | – | – | – | – | – |
| O=C(Nc1ccccc1)c1cc([N+](=O)[O-])ccc1Cl [GW9662] | inhibitory effect | – | inhibited cell growth | increased cell growth substantially | – | 1100 ± 200 nM | 1800 ± 1200 nM | 500 ± 100 nM | weak positive response | strong positive responses |
